Experiment [1] relates to Muc5AC. Put plainly: Muc5AC ELISA in culture medium. The class given is cell-based, human. The settings on record: airway epithelial monolayer, IL-13 48 h. On the procedure: FIGS. 5A-5B. AR inhibition prevents IL-13-induced goblet cell metaplasia and expression of Muc5AC in airway epithelial monolayer. (A) The well-differentiated airway epithelial cells at air-liquid interface (ALI) were incubated with IL-13 for 48 h without or with AR inhibitor, fidarestat. The monolayer was fixed as described and immunohistochemistry using Muc5AC antibodies was performed on the sections. A representative photomicrograph is shown (n=4); magnification 400×. […] (C) The airway epithelial monolayer was incubated with IL-13 submerged in basal medium for 48 h in the absence and presence of AR inhibitor, fidarestat. The culture medium was collected from the top chamber and utilized for determination of Muc5AC by an ELISA, (n=4); *p<0.005 vs Control; **p<0.01 vs IL-13. For air-liquid interface (ALI) culture, SAEC were seeded at 8.5×10^4 cells/12-mm-diameter PET transparent insert with […] pores (12-well millicell culture insert; Millipore) and pre-coated with rat tail collagen type-1 (Sigma-Aldrich). The cells were grown submerged in the differentiation medium as described earlier by Zhen et al. (Am J Respir Cell Mol Biol 36: 244-253, 2007). […] Muc5AC levels in the culture medium were assessed by ELISA using commercially available human anti-Muc5AC ELISA essentially as described by the manufacturer (Cosmo Bio USA; Carlsbad, Calif.).

Experiment [2] has as its system Muc5AC. Put plainly: RT-PCR of Muc5AC in IL-13-treated SAEC monolayer. In kind it is cell-based, human. The settings on record: SAEC monolayer at ALI, IL-13 18 h. On the procedure:
FIGS. 6A-6B. AR inhibition prevents IL-13-induced expression of Mucin and transcription factor SPDEF in airway epithelial cell monolayer. (A) The airway epithelial cell monolayer at ALI was serum starved without or with fidarestat and incubated with IL-13 for 18 h. Total RNA was isolated and subsequently RT-PCR was performed to assess the expression of Muc5AC and SPDEF. The bar diagrams show densitometric analysis of the corresponding blots (n=4). *p<0.001 vs Control; **p<0.001 vs IL-13; (B) The monolayer of ciliated airway cells at ALI was treated with AR inhibitor for 24 h and subsequently incubated with IL-13 for 24 or 48 h. At the end of incubation, cell lysate was prepared and subjected to western blotting using antibodies against Muc5AC, Muc5B, and SPDEF. The membranes were stripped and re-probed with antibodies against GAPDH to show the equal loading of protein. A representative blot is shown (n=4). *p<0.0001 vs Control; **p<0.001 vs IL-13.
For air-liquid interface (ALI) culture, SAEC were seeded at 8.5×10^4 cells/12-mm-diameter PET transparent insert with […] pores (12-well millicell culture insert; Millipore) and pre-coated with rat tail collagen type-1 (Sigma-Aldrich). The cells were grown submerged in the differentiation medium as described earlier by Zhen et al. (Am J Respir Cell Mol Biol 36: 244-253, 2007). […]

Regarding `NC(=O)[C@@H]1C[C@]2(NC(=O)NC2=O)c2cc(F)ccc2O1` [fidarestat, (2S,4S)-2-aminoformyl-6-fluoro-spiro[chroman-4,4′-imidazolidine]-2′,5′-dione], the “prevention of IL-13-induced secretion of Muc5AC in the medium” value in the experiment with Muc5AC [1] is reported as about 80%. The “IL-13-induced Muc5AC-specific RNA expression” value in the experiment on Muc5AC [2] is on record as “significantly prevented the increase”.

Source of the values: patent publication US8785483B2, “Methods for treating COPD” (The Board of Regents of the University of Texas System, priority 2010, dated 2014).
